Measurements reported in the supplement of paper PMC10307832.

Columns and labels:
Test in all cases: relative viability (nuclei count vs DMSO), 5 days (fraction); higher = more cells survive
BEN = tested on: BEN
Procedure, shortened: (§1)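 One day after seeding in 1536-well plates, lung cancer cell lines were dosed by pin tool. Dosing was either single-drug or a fixed anchor-drug dose plus five library-drug doses (not always all listed) in √10 steps. After 5 days, nuclei were stained in one fix-and-stain step and counted on 4× images, and relative viability is the nuclei count of treated wells over that of vehicle wells, given as the median of duplicate plates.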

EKVX = tested on: EKVX
Procedure, shortened: as §1

HCC-366 = tested on: HCC-366
Procedure, shortened: as §1

HCC-44 = tested on: HCC-44
Procedure, shortened: as §1

LOU-NH91 = tested on: LOU-NH91
Procedure, shortened: as §1

LU99A = tested on: LU99A
Procedure, shortened: as §1

NCI-H1355 = tested on: NCI-H1355
Procedure, shortened: as §1

NCI-H1395 = tested on: NCI-H1395
Procedure, shortened: as §1

NCI-H1437 = tested on: NCI-H1437
Procedure, shortened: as §1

NCI-H1650 = tested on: NCI-H1650
Procedure, shortened: as §1

NCI-H1651 = tested on: NCI-H1651
Procedure, shortened: as §1

NCI-H1734 = tested on: NCI-H1734
Procedure, shortened: as §1

NCI-H1755 = tested on: NCI-H1755
Procedure, shortened: as §1

NCI-H1975 = tested on: NCI-H1975
Procedure, shortened: as §1

NCI-H2023 = tested on: NCI-H2023
Procedure, shortened: as §1

NCI-H2085 = tested on: NCI-H2085
Procedure, shortened: as §1

NCI-H2342 = tested on: NCI-H2342
Procedure, shortened: as §1

NCI-H358 = tested on: NCI-H358
Procedure, shortened: as §1

NCI-H441 = tested on: NCI-H441
Procedure, shortened: as §1

NCI-H460 = tested on: NCI-H460
Procedure, shortened: as §1

NCI-H838 = tested on: NCI-H838
Procedure, shortened: as §1

Q: Which results are given for `NC(=O)Nc1cc(-c2cccc(F)c2)sc1C(=O)N[C@H]1CCCNC1` [AZD7762] + Nc1ncn([C@H]2C[C@H](O)[C@@H](CO)O2)c(=O)n1 [Decitabine] (partner 2 µM)?
A: relative viability (BEN; first compound 0.01 µM): 0.801; relative viability (BEN; first compound 0.03162 µM): 0.984; relative viability (BEN; first compound 0.1 µM): 0.874; relative viability (BEN; first compound 0.3162 µM): 0.872; relative viability (BEN; first compound 1 µM): 0.673; relative viability (EKVX; first compound 0.01 µM): 0.456; relative viability (EKVX; first compound 0.03162 µM): 0.388; relative viability (EKVX; first compound 0.1 µM): 0.326; relative viability (EKVX; first compound 0.3162 µM): 0.395; relative viability (EKVX; first compound 1 µM): 0.37; relative viability (HCC-366; first compound 0.01 µM): 0.332; relative viability (HCC-366; first compound 0.03162 µM): 0.407; relative viability (HCC-366; first compound 0.1 µM): 0.337; relative viability (HCC-366; first compound 0.3162 µM): 0.309; relative viability (HCC-366; first compound 1 µM): 0.154; relative viability (HCC-44; first compound 0.01 µM): 0.994; relative viability (HCC-44; first compound 0.03162 µM): 0.959; relative viability (HCC-44; first compound 0.1 µM): 1.01; relative viability (HCC-44; first compound 0.3162 µM): 0.987; relative viability (HCC-44; first compound 1 µM): 1.08; relative viability (LOU-NH91; first compound 0.01 µM): 0.823; relative viability (LOU-NH91; first compound 0.03162 µM): 0.796; relative viability (LOU-NH91; first compound 0.1 µM): 0.816; relative viability (LOU-NH91; first compound 0.3162 µM): 0.761; relative viability (LOU-NH91; first compound 1 µM): 0.673; relative viability (LU99A; first compound 0.01 µM): 0.863; relative viability (LU99A; first compound 0.03162 µM): 0.911; relative viability (LU99A; first compound 0.1 µM): 0.941; relative viability (LU99A; first compound 0.3162 µM): 0.958; relative viability (LU99A; first compound 1 µM): 0.635; relative viability (NCI-H1355; first compound 0.01 µM): 0.352; relative viability (NCI-H1355; first compound 0.03162 µM): 0.385; relative viability (NCI-H1355; first compound 0.1 µM): 0.317; relative viability (NCI-H1355; first compound 0.3162 µM): 0.407; relative viability (NCI-H1355; first compound 1 µM): 0.475; relative viability (NCI-H1395; first compound 0.01 µM): 0.866; relative viability (NCI-H1395; first compound 0.03162 µM): 0.727; relative viability (NCI-H1395; first compound 0.1 µM): 0.65; relative viability (NCI-H1395; first compound 0.3162 µM): 0.476; relative viability (NCI-H1395; first compound 1 µM): 0.354; relative viability (NCI-H1437; first compound 0.01 µM): 0.638; relative viability (NCI-H1437; first compound 0.03162 µM): 0.622; relative viability (NCI-H1437; first compound 0.1 µM): 0.721; relative viability (NCI-H1437; first compound 0.3162 µM): 0.656; relative viability (NCI-H1437; first compound 1 µM): 0.57; relative viability (NCI-H1650; first compound 0.01 µM): 0.606; relative viability (NCI-H1650; first compound 0.03162 µM): 0.593; relative viability (NCI-H1650; first compound 0.1 µM): 0.62; relative viability (NCI-H1650; first compound 0.3162 µM): 0.477; relative viability (NCI-H1650; first compound 1 µM): 0.284; relative viability (NCI-H1651; first compound 0.01 µM): 0.612; relative viability (NCI-H1651; first compound 0.03162 µM): 0.887; relative viability (NCI-H1651; first compound 0.1 µM): 0.698; relative viability (NCI-H1651; first compound 0.3162 µM): 0.692; relative viability (NCI-H1651; first compound 1 µM): 0.315; relative viability (NCI-H1734; first compound 0.01 µM): 0.567; relative viability (NCI-H1734; first compound 0.03162 µM): 0.581; relative viability (NCI-H1734; first compound 0.1 µM): 0.51; relative viability (NCI-H1734; first compound 0.3162 µM): 0.517; relative viability (NCI-H1734; first compound 1 µM): 0.39; relative viability (NCI-H1755; first compound 0.01 µM): 0.76; relative viability (NCI-H1755; first compound 0.03162 µM): 0.839; relative viability (NCI-H1755; first compound 0.1 µM): 0.847; relative viability (NCI-H1755; first compound 0.3162 µM): 0.922; relative viability (NCI-H1755; first compound 1 µM): 0.703; relative viability (NCI-H1975; first compound 0.01 µM): 0.427; relative viability (NCI-H1975; first compound 0.03162 µM): 0.391; relative viability (NCI-H1975; first compound 0.1 µM): 0.439; relative viability (NCI-H1975; first compound 0.3162 µM): 0.396; relative viability (NCI-H1975; first compound 1 µM): 0.266; relative viability (NCI-H2023; first compound 0.01 µM): 0.249; relative viability (NCI-H2023; first compound 0.03162 µM): 0.25; relative viability (NCI-H2023; first compound 0.1 µM): 0.179; relative viability (NCI-H2023; first compound 0.3162 µM): 0.121; relative viability (NCI-H2023; first compound 1 µM): 0.0986; relative viability (NCI-H2085; first compound 0.01 µM): 0.602; relative viability (NCI-H2085; first compound 0.03162 µM): 0.693; relative viability (NCI-H2085; first compound 0.1 µM): 0.672; relative viability (NCI-H2085; first compound 0.3162 µM): 0.743; relative viability (NCI-H2085; first compound 1 µM): 0.702; relative viability (NCI-H2342; first compound 0.01 µM): 0.68; relative viability (NCI-H2342; first compound 0.03162 µM): 0.731; relative viability (NCI-H2342; first compound 0.1 µM): 0.805; relative viability (NCI-H2342; first compound 0.3162 µM): 0.821; relative viability (NCI-H2342; first compound 1 µM): 0.854; relative viability (NCI-H358; first compound 0.01 µM): 0.229; relative viability (NCI-H358; first compound 0.03162 µM): 0.311; relative viability (NCI-H358; first compound 0.1 µM): 0.38; relative viability (NCI-H358; first compound 0.3162 µM): 0.343; relative viability (NCI-H358; first compound 1 µM): 0.224; relative viability (NCI-H441; first compound 0.01 µM): 0.274; relative viability (NCI-H441; first compound 0.03162 µM): 0.29; relative viability (NCI-H441; first compound 0.1 µM): 0.328; relative viability (NCI-H441; first compound 0.3162 µM): 0.344; relative viability (NCI-H441; first compound 1 µM): 0.27; relative viability (NCI-H460; first compound 0.01 µM): 0.657; relative viability (NCI-H460; first compound 0.03162 µM): 0.488; relative viability (NCI-H460; first compound 0.1 µM): 0.451; relative viability (NCI-H460; first compound 0.3162 µM): 0.26; relative viability (NCI-H460; first compound 1 µM): 0.0798; relative viability (NCI-H838; first compound 0.01 µM): 0.661; relative viability (NCI-H838; first compound 0.03162 µM): 0.568; relative viability (NCI-H838; first compound 0.1 µM): 0.531; relative viability (NCI-H838; first compound 0.3162 µM): 0.454; relative viability (NCI-H838; first compound 1 µM): 0.283
